The values below are quoted from earlier work in patent US20250073222A1, “METHODS FOR THE TREATMENT AND PREVENTION OF NON-VIRAL TICK-BORNE DISEASES AND SYMPTOMS THEREOF” (60 DEGREES PHARMACEUTICALS LLC, priority 2023, published 2025).

Like-named read-outs stand apart in the source and are kept apart here. Bounds are passed on as bounds.

Data set [1] concerns Babesia microti. The note with it: animals; cited from earlier work.
Data set [2] deals with various serovars of Leptospira. Particulars: exposure for as little as 30 min; cited from earlier work.
The subject of data set [3] is Treponema palludum. Particulars: 50 or 100 microM for two hours in a 3% oxygen atmosphere; cited from earlier work.
Data set [4] deals with Babesia parasites. Particulars: 100 microM for 2 h; cited from earlier work.
In data set [5] the test system is Trypanosome brucei blood stage forms. The note with it: exposure for 90 minutes; cited from earlier work.
Data set [6] relates to Babesia. The note with it: mice, single doses; cited from earlier work.
The test system of data set [7] is Pneumocystis. Particulars: mice; cited from earlier work.
The subject of data set [8] is P. falciparum gametocytes. Particulars: single dose combined with dihydroartemisinin/piperaquine; cited from earlier work.
For data set [9] the following is noted: cited from earlier work.
Data set [10] has as its system gametocytes of P. falciparum. The note with it: cited from earlier work.
The subject of data set [11] is B. rodhaini. The note with it: cited from earlier work.
Data set [12] concerns Plasmodium vivax. Particulars: 400 mg/day for three days, monotherapy, symptomatic P. vivax malaria patients; cited from earlier work.
Data set [13] relates to free-living gram-negative bacteria and free-living gram-positive bacteria. The note with it: cited from earlier work.
Data set [14] concerns B. microti. The note with it: one patient, prior rituximab; tafenoquine: approved malaria prevention dose as monotherapy for six weeks; cited from earlier work.
The test system of data set [15] is extracellular blood stage forms of Trypanosoma brucei. The note with it: cited from earlier work.
Data set [16] deals with B. gibsoni. The note with it: splenectomized dogs; cited from earlier work.
Data set [17] deals with Plasmodium falciparum. The note with it: 600 mg loading dose followed by 200 mg; parasite load three days after last dose; non-immune volunteers; cited from earlier work.
For data set [18] the following is noted: coadministered with chloroquine; cited from earlier work.
The conditions of data set [19]: loading dose of 600 mg over three days followed by weekly 200 mg for up to one year, cited from earlier work.
Data set [20] relates to Babesia. Particulars: one and three doses, immunocompromised mice and dogs; cited from earlier work.
Data set [21] deals with intracellular amastigote forms of Leishmania major. The note with it: cited from earlier work.
[22] abbreviates: single dose of 20 mg/kg, Balb/c (immunocompetent) mice.
[23] abbreviates: single dose of 20 mg/kg, immunocompromised SCID mice.

Consider `COc1cc(NC(C)CCCN)c2nccc(C)c2c1` (centres unmarked) [4-methyl substituted primaquine], for which, in data set [1], the “efficacy against Babesia microti compared with primaquine” value was “more efficacious than primaquine”.
For the molecule `OO` [hydrogen peroxide], the concentrations that killed in data set [2] is less than 180 µM. Also, in [3], the effect on growth result is “significantly inhibited”. Also, the “effect on Babesia parasites in vitro” value in [4] is “kills Babesia parasites in vitro”. In addition, in data set [5], the “concentration that killed blood stage forms” value is recorded as “approximately 140 microM”.
For the molecule `COc1cc(NC(C)CCCN)c2ncccc2c1` (centres unmarked) [primaquine], the “dose that cleared Babesia parasitemia” value in data set [6] is recorded as 100 mg/kg. The “cure of Pneumocystis infections” value in data set [7] is listed as “must be combined with clindamycin to achieve the same outcome”. Also, the “time until gametocyte infectivity was statistically lower than reference values” in data set [8] is “by two days post-dosing”. The half-life entry in data set [9] (in vivo) is “approximately 6 hours”. In addition, the “effect on gametocytes of P. falciparum” value in [10] is recorded as “killed by site specific (in bone marrow) excess production of hydrogen peroxide”.
On to `COc1cc(C)c2c(Oc3cccc(C(F)(F)F)c3)c(OC)cc(NC(C)CCCN)c2n1` (centres unmarked) [tafenoquine, N(4)-[2,6-Dimethoxy-4-methyl-5-[3-(trifluoromethyl)phenoxy]quinolin-8-yl]pentane-1,4-diamine], for which, in [11] (single dose of 20 mg/kg in mice), the “effect on B. rodhaini blood stages (vacuoles)” value is “induces the formation of large vacuoles”. Moreover, in data set [11] (setting [22]), the parasitemia result is “cleared parasitemia” and the survival is recorded as 100%. In addition, in [11] (setting [23]), the death entry is listed as “death was therefore delayed” and the parasitemia result is on record as “cleared initial parasitemia but did not prevent relapses”. Further, the “time by which all patients cleared blood stage parasites” value in [12] was no more than 8 days. Also, in [6], the “dose that cleared Babesia parasitemia” value is 20 mg/kg. In addition, in data set [13], the “activity against gram-negative versus gram-positive bacteria” value is “much less active against free-living gram-negative bacteria than free-living gram-positive bacteria”. Further, the “clinical outcome of the regimen” value in data set [14] is recorded as “the patient was cured”. Besides, in data set [15], the potency of killing is less than 4 µM. Moreover, the “cure of Pneumocystis infections” value in [7] is reported as “can be administered as monotherapy to cure Pneumocystis infections”. Besides, in data set [16], the “symptoms of infection such as anorexia, elevated respiration and pulse” value is reported as “alleviated”. Also, the “development of blood stage parasitemia after challenge” value in [17] was “none of the tafenoquine subjects did”. Further, in data set [18], the “effect on QTC prolongation of chloroquine” value is reported as “did not increase the QTC prolongation”. The “half-life in vivo compared with primaquine” value in [9] (FIG. 1A and FIG. 1B legend) is listed as “longer half-life in vivo”. The “overall rate of adverse events relative to placebo” value in data set [19] is listed as “without increasing the overall rate of adverse events”. Besides, the “specific adverse events with increased risk” value in data set [19] (reversible, not clinically significant) is “gastrointestinal effects [mild to moderate] and cornea verticillata”. Also, in [20], the “clearance and cure of Babesia” value was “sufficient to clear and cure Babesia”. In [21], the potency of killing is less than 4 µM.
